Laboratory results from article PMC10755693, “Widespread Family of NAD^+-Dependent Sulfoquinovosidases at the Gateway to Sulfoquinovose Catabolism” (Journal of the American Chemical Society, 2023).

Molecular target: T1, ArSqgA (Arthrobacter sp. U41, UniProt Z9RXK5N058)
T1 construct: synthetic gene with codons harmonized for E. coli; homodimer; GH188
T1 sequence (Z9RXK5N058 14-392): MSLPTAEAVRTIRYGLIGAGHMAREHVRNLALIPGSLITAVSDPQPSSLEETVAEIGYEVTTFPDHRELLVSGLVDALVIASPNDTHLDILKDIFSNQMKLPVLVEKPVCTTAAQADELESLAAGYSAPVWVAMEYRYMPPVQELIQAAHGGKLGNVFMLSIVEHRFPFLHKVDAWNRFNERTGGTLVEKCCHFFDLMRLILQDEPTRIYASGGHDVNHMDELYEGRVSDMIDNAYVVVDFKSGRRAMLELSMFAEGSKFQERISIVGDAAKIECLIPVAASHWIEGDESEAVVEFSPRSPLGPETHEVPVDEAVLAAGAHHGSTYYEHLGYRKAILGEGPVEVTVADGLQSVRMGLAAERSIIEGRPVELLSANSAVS
Assay: X-ray crystal structure, […] Å
Format: binding
Settings: Rossmann domain cleft; binary complex

Question: For NC(=O)c1ccc[n+]([C@@H]2O[C@H](COP(=O)(O)OP(=O)(O)OC[C@H]3O[C@@H](n4cnc5c(N)ncnc54)[C@H](O)[C@@H]3O)[C@@H](O)[C@H]2O)c1 [NAD^+], which “X-ray crystal structure, 2.65 Å” value is on record?
Answer: modeling of a single molecule of NAD^+ bound in an extended conformation in each monomer
